Where two headings read alike, the source gives them in different places.

A word on the EC50: it is the concentration needed to bring the measured effect to its halfway point.

In the experiment the test system is HBV rcDNA. The experiment is described as follows: HepDE19 assay with bDNA quantitation of HBV rcDNA. The class given is cell-based, hepatitis B virus. An outline of the steps:
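HepDE19 cells (HepG2-derived, Tet-regulated HBV replication) were deprived of tetracycline and then exposed to compounds for 7 days at 37 °C in 0.5% DMSO, 8-point titration from 25 μM. rcDNA was quantified by bDNA and EC50/EC90 came from 4-parameter fits. CC50 was measured by CellTiter-Glo ATP content on replicate plates after 4 days.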

[1] abbreviates: Hepatitis B virus, HepDE19, HepDE19 assay, inhibition of formation of rcDNA, read-out: DE-19bDNA EC50.
The mark [2] stands for this setting: HepDE19 assay, inhibition of formation of rcDNA, read-out: DE-19bDNA EC50.
The mark [3] stands for this setting: HepDE19 assay, inhibition of formation of relaxed circular DNA (rcDNA), bDNA quantitation, read-out: DE-19bDNA EC50.
Setting [4] is: read-out: DE-19bDNA EC50, HepDE19 assay, inhibition of formation of relaxed circular DNA (rcDNA), bDNA quantitation.

Take `CCCCN(Cc1cnc(OC)c2ccccc12)C(=O)Nc1ccc(F)c(Cl)c1` [Compound 33, 1-Butyl-3-(3-chloro-4-fluorophenyl)-1-((1-methoxyisoquinolin-4-yl)methyl)urea]: the EC50 under setting [1] worked out at 0.62 µM. For `CN(Cc1cnc(OCc2ncn(C)n2)c2ccccc12)C(=O)Nc1ccc(F)c(Cl)c1` [Compound 87, 3-(3-Chloro-4-fluorophenyl)-1-methyl-1-((1-((1-methyl-1H-1,2,4-triazol-3-yl)methoxy)isoquinolin-4-yl)methyl)urea], the half-maximal effective concentration (EC50) under setting [1] came to 0.47 µM. Turning to `C[C@H](c1c[nH]c(=O)c2ccccc12)N(C)C(=O)Nc1ccc(Cl)cc1` [Compound 293, (R)-3-(4-Chlorophenyl)-1-methyl-1-(1-(1-oxo-1,2-dihydroisoquinolin-4-yl)ethyl)urea], the EC50 (Hepatitis B virus, HepDE19, read-out: DE-19bDNA EC50 (μM), HepDE19 assay, inhibition of formation of relaxed circular DNA (rcDNA), bDNA quantitation) is 0.34 µM.

As to `CCC(c1cnc(OC)c2ccccc12)N(CC)C(=O)Nc1ccc(F)c(Cl)c1` (single isomer, unassigned) [Compound 36, 3-(3-Chloro-4-fluorophenyl)-1-ethyl-1-(1-(1-methoxyisoquinolin-4-yl)propyl)urea], the EC50 under setting [2] worked out at 2.1 µM. On to `CC(c1c[nH]c(=O)c2c(F)cc(F)cc12)N(CCCO)C(=O)Nc1ccc(F)cc1` (single isomer, unassigned) [Compound 378, 1-(1-(6,8-Difluoro-1-oxo-1,2-dihydroisoquinolin-4-yl)ethyl)-3-(4-fluorophenyl)-1-(3-hydroxypropyl) urea], for which, under setting [3], the EC50 was 0.024 µM. With `CC(c1c[nH]c(=O)c2ccccc12)N(CCC(=O)O)C(=O)Nc1ccc(F)c(Cl)c1` (single isomer, unassigned) [Compound 208, 3-(3-(3-Chloro-4-fluorophenyl)-1-(1-(1-oxo-1,2-dihydroisoquinolin-4-yl)ethyl)ureido)propanoic acid], the EC50 under setting [1] was 3.3 µM. Consider `CC(c1c[nH]c(=O)c2cc(F)ccc12)N(CCS(N)(=O)=O)C(=O)Nc1ccc(F)c(Cl)c1` (single isomer, unassigned) [Compound 384, 2-(3-(3-Chloro-4-fluorophenyl)-1-(1-(7-fluoro-1-oxo-1,2-dihydroisoquinolin-4-yl)ethyl)ureido) ethane-1-sulfonamide], for which, under setting [3], the concentration giving a half-maximal response (EC50) came out at 0.01 µM. As to `CNC(=O)c1ncc(C(C)N(C)C(=O)Nc2ccc(F)c(Cl)c2)c2ccccc12` (single isomer, unassigned) [Compound 316, 4-(1-(3-(3-Chloro-4-fluorophenyl)-1-methylureido)ethyl)-N-methylisoquinoline-1-carboxamide], under setting [3], the EC50 was 7.5 µM. As for `CN(C(=O)Nc1ccc(F)c(Cl)c1)C(CO)c1c[nH]c(=O)c2ccccc12` (single isomer, unassigned) [Compound 379, 3-(3-Chloro-4-fluorophenyl)-1-(2-hydroxy-1-(1-oxo-1,2-dihydroisoquinolin-4-yl)ethyl)-1-methylurea], under setting [4], the EC50 was 0.14 µM.

Regarding `CC(c1c[nH]c(=O)c2ccccc12)N(Cc1c[nH]nn1)C(=O)Nc1ccc(F)c(Cl)c1` (single isomer, unassigned) [Compound 266, 1-((2H-1,2,3-Triazol-4-yl)methyl)-3-(3-chloro-4-fluorophenyl)-1-(1-(1-oxo-1,2-dihydroisoquinolin-4-yl)ethyl)urea], the EC50 under setting [2] was found to be 12 µM.

As for `CC(c1c[nH]c(=O)c2cc(F)c(F)cc12)N(C)C(=O)Nc1cc(F)c(F)c(F)c1` (single isomer, unassigned) [Compound 414, 1-(1-(6,7-Difluoro-1-oxo-1,2-dihydroisoquinolin-4-yl)ethyl)-3-(3,4,5-trifluorophenyl)-1-methylurea], the EC50 under setting [3] turned out to be 4.8 µM. In the case of `Cc1cc(NC(=O)N(C)C(C)c2c(C)[nH]c(=O)c3ccccc23)ccc1F` (single isomer, unassigned) [Compound 237, 3-(4-Fluoro-3-methylphenyl)-1-methyl-1-(1-(3-methyl-1-oxo-1,2-dihydroisoquinolin-4-yl)ethyl)urea], under setting [2], the EC50 was determined as 0.04 µM. For the molecule `CNC(=O)CN(C(=O)Nc1ccc(F)c(Cl)c1)C(C)c1c[nH]c(=O)c2ccccc12` (single isomer, unassigned) [Compound 129, 2-(3-(3-Chloro-4-fluorophenyl)-1-(1-(1-oxo-1,2-dihydroisoquinolin-4-yl)ethyl)ureido)-N-methylacetamide], the concentration giving a half-maximal response (EC50) under setting [1] is 0.53 µM.

`CC(c1c[nH]c(=O)c2ccccc12)N(CC1CCOC1)C(=O)Nc1ccc(F)c(Cl)c1` (stereo not drawn) [Compound 175]: the concentration giving a half-maximal response (EC50) under setting [2] is 0.85 µM. On to `CC(c1c[nH]c(=O)c2c(F)c(F)ccc12)N(C)C(=O)Nc1cccc(F)c1` (single isomer, unassigned) [Compound 456, 1-(1-(7,8-Difluoro-1-oxo-1,2-dihydroisoquinolin-4-yl)ethyl)-3-(3-fluorophenyl)-1-methylurea], for which, under setting [4], the EC50 amounted to 0.051 µM. Regarding `CC(c1c[nH]c(=O)c2ccccc12)N(CC(N)=O)C(=O)Nc1ccc(F)c(Cl)c1` (racemic) [Compound 128, 2-(3-(3-Chloro-4-fluorophenyl)-1-(1-(1-oxo-1,2-dihydroisoquinolin-4-yl)ethyl)ureido) acetamide], the EC50 under setting [1] is 1.5 µM.

For the molecule `CC(c1c[nH]c(=O)c2c(F)c(F)ccc12)N(C)C(=O)Nc1ccc(Cl)cc1` (single isomer, unassigned) [Compound 445, 3-(4-Chlorophenyl)-1-(1-(7,8-difluoro-1-oxo-1,2-dihydroisoquinolin-4-yl)ethyl)-1-methylurea], the EC50 under setting [4] was 0.22 µM. In the case of `COCCn1cc(C(C)N(C)C(=O)Nc2ccc(F)c(Cl)c2)c2ccccc2c1=O` (single isomer, unassigned) [Compound 191, 3-(3-Chloro-4-fluorophenyl)-1-(1-(2-(2-methoxyethyl)-1-oxo-1,2-dihydroisoquinolin-4-yl)ethyl)-1-methylurea], under setting [1], the EC50 was found to be 0.36 µM. For `CCN(C(=O)Nc1ccc(F)c(Cl)c1)C(C)c1c[nH]c(=O)c2c(F)c(F)ccc12` (single isomer, unassigned) [Compound 468, 3-(3-Chloro-4-fluorophenyl)-1-(1-(7,8-difluoro-1-oxo-1,2-dihydroisoquinolin-4-yl)ethyl)-1-ethylurea], the 50% effective concentration (EC50) under setting [3] is 1.1 µM.

For the molecule `O=C(Nc1ccc(F)c(Cl)c1)N(Cc1c[nH]c(=O)c2ccccc12)C1CC1` [Compound 42, 3-(3-Chloro-4-fluorophenyl)-1-cyclopropyl-1-((1-oxo-1,2-dihydroisoquinolin-4-yl)methyl)urea], under setting [1], the EC50 was 0.81 µM. With `CC(c1c[nH]c(=O)c2ccccc12)N(CCNCC(F)F)C(=O)Nc1ccc(F)c(Cl)c1` (single isomer, unassigned) [Compound 199, 3-(3-Chloro-4-fluorophenyl)-1-(2-((2,2-difluoroethyl)amino)ethyl)-1-(1-(1-oxo-1,2-dihydroisoquinolin-4-yl)ethyl)urea], the EC50 under setting [2] turned out to be 2.2 µM.

As to `CC(c1c[nH]c(=O)c2ccccc12)N(CC1CCCCC1)C(=O)Nc1ccc(F)c(Cl)c1` (single isomer, unassigned) [Compound 195, 3-(3-Chloro-4-fluorophenyl)-1-(cyclohexylmethyl)-1-(1-(1-oxo-1,2-dihydroisoquinolin-4-yl)ethyl)urea], under setting [2], the half-maximal effective concentration (EC50) was 0.03 µM. Consider `CC(c1c[nH]c(=O)c2c(F)cc(F)cc12)N(CCS(N)(=O)=O)C(=O)Nc1ccc(F)c(Cl)c1` (single isomer, unassigned) [Compound 389, 2-(3-(3-Chloro-4-fluorophenyl)-1-(1-(6,8-difluoro-1-oxo-1,2-dihydroisoquinolin-4-yl)ethyl)ureido) ethane-1-sulfonamide], for which, under setting [3], the concentration for a half-maximal effect (EC50) was found to be 3.3 µM. Take `COc1ccc2c(C(C)N(C)C(=O)Nc3ccc(F)c(Cl)c3)c[nH]c(=O)c2c1` (single isomer, unassigned) [Compound 177, 3-(3-Chloro-4-fluorophenyl)-1-(1-(7-methoxy-1-oxo-1,2-dihydroisoquinolin-4-yl)ethyl)-1-methylurea]: the EC50 under setting [2] came to 2.2 µM. Same read-out and setting: with `CC(c1cnc(NCc2nc[nH]n2)c2ccccc12)N(C)C(=O)Nc1ccc(F)c(Cl)c1` (single isomer, unassigned) [Compound 248, 1-(1-(1-(((1H-1,2,4-Triazol-3-yl)methyl)amino)isoquinolin-4-yl)ethyl)-3-(3-chloro-4-fluorophenyl)-1-methylurea] the figure was 9.1 µM. In the case of `CC(c1c[nH]c(=O)c2c(F)c(F)ccc12)N(C)C(=O)Nc1ccc(F)c(C#N)c1` (single isomer, unassigned) [Compound 471, 3-(3-Cyano-4-fluorophenyl)-1-(1-(7,8-difluoro-1-oxo-1,2-dihydroisoquinolin-4-yl)ethyl)-1-methylurea], under setting [3], the EC50 worked out at 0.02 µM. Take `CC(c1c[nH]c(=O)c2ccccc12)N(C[C@H]1CCCO1)C(=O)Nc1ccc(F)c(Cl)c1` (single isomer, unassigned) [Compound 155]: the EC50 under setting [2] came out at 7.7 µM. Consider `CC(c1c[nH]c(=O)c2cc(F)c(F)cc12)N(C)C(=O)Nc1cccc(Cl)c1` (single isomer, unassigned) [Compound 412, 1-(1-(6,7-Difluoro-1-oxo-1,2-dihydroisoquinolin-4-yl)ethyl)-3-(3-chlorophenyl)-1-methylurea], for which the EC50 under setting [4] came to 1.9 µM. As to `CCN(Cc1c[nH]c(=O)c2ccccc12)C(=O)Nc1ccc(F)c(Cl)c1` [Compound 9, 3-(3-Chloro-4-fluorophenyl)-1-ethyl-1-((1-oxo-1,2-dihydroisoquinolin-4-yl)methyl)urea], the EC50 under setting [1] turned out to be 0.16 µM.

With `CC(c1c[nH]c(=O)c2ccccc12)N(CC1CCCC1)C(=O)Nc1ccc(F)c(Cl)c1` (single isomer, unassigned) [Compound 192, 3-(3-Chloro-4-fluorophenyl)-1-(cyclopentylmethyl)-1-(1-(1-oxo-1,2-dihydroisoquinolin-4-yl)ethyl)urea], the EC50 under setting [2] was found to be 0.42 µM.

Source of the values: patent US20230045421A1 (priority 2018, published 2023).
